Reference: patent publication US12077503B2, “Substituted cyclic amides and their use as herbicides” (FMC CORPORATION, priority 2015, dated 2024)

Tests used:
Assay in all cases: Test C preemergence
Format in all cases: in vivo
Conditions in all cases: scale 0 to 100, 0 no effect, 100 complete control
[1] = tested on: lambsquarters (Chenopodium album)
Summary of the method: (§1)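 After treatment with surfactant-containing formulations, either preemergence to seeds in loam-sand soil or postemergence to potted seedlings at 2–18 cm, plants were kept 13–15 d in a greenhouse. Observers then compared them with controls and assigned ratings, 0 signifying no effect and 100 complete control.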

[2] = tested on: morningglory (Ipomoea coccinea)
Summary of the method: as §1

[3] = tested on: ryegrass, Italian (Italian ryegrass, Lolium multiflorum)
Summary of the method: as §1

[4] = tested on: barnyardgrass (Echinochloa crus-galli)
Summary of the method: as §1

[5] = tested on: nutsedge, yellow (yellow nutsedge, Cyperus esculentus)
Summary of the method: as §1

[6] = tested on: foxtail, giant (giant foxtail, Setaria faberii)
Summary of the method: as §1

[7] = tested on: wheat (winter wheat, Triticum aestivum)
Summary of the method: as §1

[8] = tested on: oilseed rape (Brassica napus)
Summary of the method: as §1

[9] = tested on: Galium (catchweed bedstraw, Galium aparine)
Summary of the method: as §1

[10] = tested on: waterhemp (common waterhemp, Amaranthus rudis)
Summary of the method: as §1

[11] = tested on: ragweed (common ragweed, Ambrosia elatior)
Summary of the method: as §1

[12] = tested on: velvetleaf (Abutilon theophrasti)
Summary of the method: as §1

[13] = tested on: soybean (Glycine max)
Summary of the method: as §1

[14] = tested on: crabgrass, large (large crabgrass, Digitaria sanguinalis)
Summary of the method: as §1

[15] = tested on: pigweed (Amaranthus retroflexus)
Summary of the method: as §1

[16] = tested on: corn (Zea mays)
Summary of the method: as §1

## CN1CC(c2ccc(C(F)(F)F)c(F)c2)C(C(=O)Nc2ccccc2S(C)(=O)=O)C1=O (centres unmarked) [Compound 397]
[1]; 31 g ai/ha
  Plant response rating, Lambsquarters: 30
[1]; 62 g ai/ha
  Plant response rating, Lambsquarters: 70
[1]; 125 g ai/ha
  Plant response rating, Lambsquarters: 75
[1]; 250 g ai/ha
  Plant response rating, Lambsquarters: 75
[2]; 31 g ai/ha
  Plant response rating, Morningglory: 5
[2]; 62 g ai/ha
  Plant response rating, Morningglory: 55
[2]; 125 g ai/ha
  Plant response rating, Morningglory: 60
[2]; 250 g ai/ha
  Plant response rating, Morningglory: 70
[3]; 62 g ai/ha
  Plant response rating, Ryegrass, Italian: 60
[3]; 125 g ai/ha
  Plant response rating, Ryegrass, Italian: 60
[3]; 250 g ai/ha
  Plant response rating, Ryegrass, Italian: 60
[4]; 31 g ai/ha
  Plant response rating, Barnyardgrass: 90
[4]; 62 g ai/ha
  Plant response rating, Barnyardgrass: 95
[4]; 125 g ai/ha
  Plant response rating, Barnyardgrass: 98
[4]; 250 g ai/ha
  Plant response rating, Barnyardgrass: 98
[5]; 31 g ai/ha
  Plant response rating, Nutsedge, Yellow: 0
[5]; 62 g ai/ha
  Plant response rating, Nutsedge, Yellow: 10
[5]; 125 g ai/ha
  Plant response rating, Nutsedge, Yellow: 50
[5]; 250 g ai/ha
  Plant response rating, Nutsedge, Yellow: 70
[6]; 31 g ai/ha
  Plant response rating, Foxtail, Giant: 95
[6]; 62 g ai/ha
  Plant response rating, Foxtail, Giant: 95
[6]; 125 g ai/ha
  Plant response rating, Foxtail, Giant: 98
[6]; 250 g ai/ha
  Plant response rating, Foxtail, Giant: 98
[7]; 62 g ai/ha
  Plant response rating, Wheat: 45
[7]; 125 g ai/ha
  Plant response rating, Wheat: 45
[7]; 250 g ai/ha
  Plant response rating, Wheat: 70
[8]; 31 g ai/ha
  Plant response rating, Oilseed Rape: 20
[8]; 62 g ai/ha
  Plant response rating, Oilseed Rape: 70
[8]; 125 g ai/ha
  Plant response rating, Oilseed Rape: 80
[8]; 250 g ai/ha
  Plant response rating, Oilseed Rape: 85
[9]; 31 g ai/ha
  Plant response rating, Galium: 40
[9]; 62 g ai/ha
  Plant response rating, Galium: 80
[9]; 125 g ai/ha
  Plant response rating, Galium: 90
[9]; 250 g ai/ha
  Plant response rating, Galium: 90
[10]; 62 g ai/ha
  Plant response rating, Waterhemp: 90
[10]; 125 g ai/ha
  Plant response rating, Waterhemp: 98
[10]; 250 g ai/ha
  Plant response rating, Waterhemp: 95
[11]; 31 g ai/ha
  Plant response rating, Ragweed: 20
[11]; 62 g ai/ha
  Plant response rating, Ragweed: 75
[11]; 125 g ai/ha
  Plant response rating, Ragweed: 70
[11]; 250 g ai/ha
  Plant response rating, Ragweed: 70
[12]; 62 g ai/ha
  Plant response rating, Velvetleaf: 25
[12]; 125 g ai/ha
  Plant response rating, Velvetleaf: 30
[12]; 250 g ai/ha
  Plant response rating, Velvetleaf: 45
[13]; 62 g ai/ha
  Plant response rating, Soybean: 0
[13]; 125 g ai/ha
  Plant response rating, Soybean: 0
[13]; 250 g ai/ha
  Plant response rating, Soybean: 20
[14]; 31 g ai/ha
  Plant response rating, Crabgrass, Large: 98
[14]; 62 g ai/ha
  Plant response rating, Crabgrass, Large: 98
[14]; 125 g ai/ha
  Plant response rating, Crabgrass, Large: 100
[14]; 250 g ai/ha
  Plant response rating, Crabgrass, Large: 100
[15]; 31 g ai/ha
  Plant response rating, Pigweed: 55
[15]; 62 g ai/ha
  Plant response rating, Pigweed: 90
[15]; 125 g ai/ha
  Plant response rating, Pigweed: 95
[15]; 250 g ai/ha
  Plant response rating, Pigweed: 95
[16]; 31 g ai/ha
  Plant response rating, Corn: 25
[16]; 62 g ai/ha
  Plant response rating, Corn: 15
[16]; 125 g ai/ha
  Plant response rating, Corn: 60
[16]; 250 g ai/ha
  Plant response rating, Corn: 75
